# Laboratory results from US20250250251A1, “PIPERIDINYLPYRIDINYLCARBONITRILE DERIVATIVES AS INHIBITORS OF GLUTAMINYL-PEPTIDE CYCLOTRANSFERASE AND GLUTAMINYL-PEPTIDE CYCLOTRANSFERASE LIKE PROTEIN” (Boehringer Ingelheim International GmbH, priority 2024, published 2025).
# pIC50: −log10 of the molar value.
# What was measured:
# [1] = target: T1, QPCTL (Homo sapiens, UniProt Q9NXS2); test: Assay A: biochemical QPCTL activity assay (MALDI-TOF MS, CD47 peptide substrate); settings: Table 2, compounds of the invention, read-out: Inhibition of QPCTL: IC50
# T1 construct: made in house
# T1 sequence (Q9NXS2 whole entry, species assumed): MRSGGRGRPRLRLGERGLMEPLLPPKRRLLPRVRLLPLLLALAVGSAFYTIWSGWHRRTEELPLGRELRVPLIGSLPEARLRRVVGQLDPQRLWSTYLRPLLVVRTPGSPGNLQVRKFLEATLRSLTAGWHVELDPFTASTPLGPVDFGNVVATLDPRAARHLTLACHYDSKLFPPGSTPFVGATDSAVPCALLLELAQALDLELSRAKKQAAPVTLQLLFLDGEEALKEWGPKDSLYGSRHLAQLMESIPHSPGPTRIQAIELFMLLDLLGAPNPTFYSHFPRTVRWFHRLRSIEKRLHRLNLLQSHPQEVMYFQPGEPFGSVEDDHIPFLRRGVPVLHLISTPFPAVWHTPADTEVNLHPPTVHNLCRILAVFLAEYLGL
# Experimental: (§1) QPCT or QPCTL dependent conversion of N-terminal glutamine to pyroglutamate of CD47 was monitored via MALDI-TOF MS. Test compounds were dissolved in 100% DMSO and serially diluted into clear 1,536-well microtiter plates. Enzymatic reactions were set up in assay buffer containing 20 mM Tris pH 7.5, 0.1 mM TCEP, 0.01% BSA, and 0.001% Tween20. […] The plates were incubated for 10 min in a humidified incubator at 24° C. Subsequently, 2.5 μL of CD47 peptide substrate surrogate (^19[…]^33) was added to each well (final concentration: 10 μM for QPCTL/20 μM for QPCT). The plates were mixed for 30 sec at 1,000 rpm and subsequently incubated for 40 min in a humidified incubator at 24° C. […] The plates were sealed with an adhesive foil, mixed for 30 s at 1,000 rpm and stored at room temperature until preparation of the MALDI target plates. MALDI target plates were prepared as described previously. […] QPCT or QPCTL activity was monitored by calculating the ratio between product and internal standard signals followed by normalization to high (100% activity) and low (0% activity) controls. Determination of compound potencies was obtained by fitting the dose-response data to a four-parameter logistical equation.
# [2] = target: T2, QPCT (Homo sapiens, UniProt Q16769); test: Assay A: biochemical QPCT activity assay (MALDI-TOF MS, CD47 peptide substrate); settings: Table 2, compounds of the invention, read-out: Inhibition of QPCT: IC50
# T2 construct: purchased Origine (OriGene) TP700028
# T2 sequence (Q16769 29-361): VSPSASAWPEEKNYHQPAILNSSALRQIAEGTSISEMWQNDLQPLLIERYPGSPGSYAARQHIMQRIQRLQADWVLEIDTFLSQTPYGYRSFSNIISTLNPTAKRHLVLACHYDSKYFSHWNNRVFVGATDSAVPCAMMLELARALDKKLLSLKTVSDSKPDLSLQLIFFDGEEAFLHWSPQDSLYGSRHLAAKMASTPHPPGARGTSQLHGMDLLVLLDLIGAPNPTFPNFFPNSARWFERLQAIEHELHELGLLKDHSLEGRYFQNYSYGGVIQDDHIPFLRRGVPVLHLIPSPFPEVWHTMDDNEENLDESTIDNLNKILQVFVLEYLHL
# Experimental: as §1
# [3] = system: SIRPα signalling induced by Raji cells; test: Assay B: SIRPα signalling assay using Raji cells; format: cell-based; settings: Homo sapiens, Table 4, compounds of the invention, read-out: Inhibition of SIRPα signalling induced by Raji cells: IC50
# Experimental: Bioassay reagent 1 of the PathHunter Bioassay detection kit (DiscoverX 93-0001) was added to each well of the plate using a multichannel pipette followed by a 15 min incubation at room temperature. Afterwards bioassay reagent 2 was added followed by 60 min incubation at room temperature (incubation in the dark).
# (§2) The analysis of the data was performed using the luminescence signal generated by beta-galactosidase in the PathHunter reporter cell line. The luminescence measurement was done using a Pherastar Multi-Mode Reader.
# [4] = system: SIRPα signalling induced by A549 cells; test: Assay B: SIRPα signalling assay using A549 cells; format: cell-based; settings: Homo sapiens, Table 4, compounds of the invention, read-out: Inhibition of SIRPα signalling induced by A549 cells: IC50
# Experimental: Two cell types are independently used: the Raji cell line (lymphoblast-like human cell line derived from B lymphocytes from a Burkitt's lymphoma patient in 1963) and A549 cells (adenocarcinoma human alveolar basal epithelial cells).
# Test compounds were dissolved in 100% DMSO and serially diluted into a white 384-well microtiter cell culture plate (PerkinElmer #60076780 in case of Raji assay; PDL-coated plates Greiner #781945 in case of A549 assay). 5000 Raji cells (ATCC #CC86) or 5000 A549 cells (ATCC #CCL-185) in Assay Complete Cell Plating reagent 30 (DiscoverX 93-0563R30B) were added per well. The assay plate was incubated for 48 h at 37° C., 95% humidity and 5% CO2. 15000 reporter cells (Jurkat PathHunter SIRPαV1, DiscoverX #93-1135C19) were added to each well, and the plate was incubated for 5 h at 37° C., 95% humidity and 5% CO2. Bioassay reagent 1 of the PathHunter Bioassay detection kit (DiscoverX 93-0001) was added to each well of the plate using a multichannel pipette followed by a 15 min incubation at room temperature. Afterwards bioassay reagent 2 was added followed by 60 min incubation at room temperature (incubation in the dark).
# as §2, with “Reader. Dose-response curves & IC50 data were calculated with 4-parameter sigmoidal dose response formula.” for “Reader.”
# [5] = Assay C: permeability in CACO-2 cells; format: in vitro ADME; settings: human, pH 7.2, Table 7, compounds of the invention, CACO-2 cells; for efflux ratio: permeability B-A/permeability A-B, read-out: Efflux Ratio
# Experimental: Caco-2 cells (1-2×10^5 cells/1 cm^2 area) are seeded on filter inserts (Costar transwell polycarbonate or PET filters, 0.4 μm pore size) and cultured (DMEM) for 10 to 25 days. Compounds are dissolved in appropriate solvent (like DMSO, 1-20 mM stock solutions). […] The transport solution (TL) is applied to the apical or basolateral donor side for measuring A-B or B-A permeability (3 filter replicates), respectively. Samples are collected at the start and end of experiment from the donor and at various time intervals for up to 2 hours also from the receiver side for concentration measurement by HPLC-MS/MS or scintillation counting. Sampled receiver volumes are replaced with fresh receiver solution.
# Efflux ratio (ER)=permeability B−A/permeability A−B
# [6] = system: CYP3A4 mRNA; test: Assay D: CYP induction screening assay in primary human hepatocytes; format: in vitro ADME; settings: Table 9, compounds of the invention, 48 h
# Experimental: Cryopreserved plateable human hepatocytes (single donor. BioIVT) were thawed and plated in Collagen-I coated 96-well-plates at a cell density of 0.07 million cells per well.
# After a 6 h attachment period, the seeding medium was replaced by serum-free William's medium E supplemented with Matrigel (0.25 mg/ml) and allowed to recover overnight. 24 h post-seeding, serum-free Williams E medium containing the test compound at a final concentration of […] and a final DMSO content of 0.1% and 0.1% DMSO (solvent-treated control), respectively, was added to predefined wells. Exposure solutions were renewed after 24 h.
# After 48 h of treatment in total, the effect of the test compounds on CYP3A4 mRNA expression was assessed using the QuantiGene Plex Gene Expression Assay. Hepatocytes were lysed and total RNA was extracted using the QuantiGene Sample Processing Kit according to the instructions of the manufacturer.
# mRNA quantification was conducted using a customized QuantiGene Plex Panel to analyse CYP3A4 and the housekeeper genes RPL32, EIF4E2 and GUSB according to the instructions of the manufacturer and measured on a Luminex™ instrument. Signal was reported as median fluorescence intensity (MFI), which is proportional to the number of target RNA molecules present in the sample.
# For calculation of CYP3A4 mRNA induction, the signal for CYP3A4 was normalized against the geometric mean of the signal obtained for the housekeeper genes for hepatocytes exposed to test compounds in relation to solvent-treated samples according to the following equation: […]
# [7] = system: murine hepatocytes; test: Assay E: stability in murine hepatocytes; format: in vitro ADME, mouse; settings: Table 12, compounds of the invention, 1 μM, 5% species serum
# Experimental: The metabolic degradation of the test compound is assayed in a murine hepatocyte suspension.
# Murine hepatocytes (typically cryopreserved) are incubated in an appropriate buffer system (e.g. Dulbecco's modified eagle medium plus 3.5 μg glucagon/500 mL, 2.5 mg insulin/500 mL and 3.75 mg/500 mL hydrocortison) containing 5% species serum.
# Following a (typically) 30 min preincubation in an incubator (37° C., 10% CO2) 5 μl of test compound solution (80 μM; from 2 mM in DMSO stock solution diluted 1:25 with medium) are added into 395 μl hepatocyte suspension (cell density in the range 0.25-5 Mio cells/mL, typically 1 Mio cells/mL; final concentration of test compound 1 μM, final DMSO concentration 0.05%).
# The cells are incubated for six hours (incubator, orbital shaker) and samples (25 μl) are taken at 0, 0.5, 1, 2, 4 and 6 hours. Samples are transferred into acetonitrile and pelleted by centrifugation (5 min). The supernatant is transferred to a new 96-deepwell plate, evaporated under nitrogen and resuspended.
# Decline of parent compound is analyzed by HPLC-MS/MS
# CLint is calculated as follows CL_[…]=Dose/AUC=(C0/CD)/(AUD+clast/k)×1000/60. C0: initial concentration in the incubation [μM], CD: cell density of vital cells [10e6 cells/mL], AUD: area under the data [μM×h], clast: concentration of last data point [μM], k: slope of the regression line for parent decline [h−1].
# The calculated in vitro hepatic intrinsic clearance can be scaled up to the intrinsic in vivo hepatic Clearance and used to predict hepatic in vivo blood clearance (CL) by the use of a liver model (well stirred model).
# [formula] [formula] [formula] • Hepatocellularity, mouse: 120×10e6 cells/g liver • Liver factor, mouse: 55 g/kg bodyweight • Blood flow, mouse: 90 ml/(min×kg)
pIC50 [1],pIC50 [2],pIC50 [3],pIC50 [4],Papp A→B [5] [×10⁻⁶ cm/s],efflux ratio [5],n-fold induction of CYP3A4 at 10 μM [6] [n-fold],Mouse Hepatocyte Stability QH [7] [%],SMILES
8.22,8.30,7.08,7.85,14,6.4,4.2,34,Cn1cnnc1C1(F)CCN(c2c(C#N)cc(C(C)(F)F)nc2-c2cnc3nn(C)c(C(F)(F)F)c3c2)CC1 [Example 9]
8.10,7.89,6.80,7.31,11,6.6,5.2,53,Cn1cnnc1C1(F)CCN(c2c(C#N)cc(C(F)(F)F)nc2-c2cnc3nn(C)c(C(F)(F)F)c3c2)CC1 [Example 10]
8.52,8.52,6.78,7.43,32,2.5,5.0,32,Cn1cnnc1C1(F)CCN(c2c(C#N)cc(C3CC3)nc2-c2cnc3nn(C)c(C(F)(F)F)c3c2)CC1 [Example 11]
7.80,7.85,6.02,6.84,5.6,9.5,4.1,21,Cc1cc(-c2nc(C3CC3)cc(C#N)c2N2CCC(F)(c3nncn3C)CC2)cnn1 [Example 12]
7.92,8.05,8.52,9.00,7.6,10.9,14.2,<12,Cn1cnnc1C1(F)CCN(c2c(C#N)cc(C(F)(F)F)nc2-c2cnc3nn(C(C)(C)C)cc3c2C(F)F)CC1 [Example 15]
8.70,8.70,7.16,7.66,5.1,9.4,3.0,18,Cc1nn(C)cc1-c1cc(C#N)c(N2CCC(F)(c3nncn3C)CC2)c(-c2cnc3nn(C(F)(F)F)cc3c2)n1 [Example 17]
8.40,8.30,6.58,7.09,2.3,17,1.3,44,Cn1cnnc1C1(F)CCN(c2c(C#N)cc(-c3ccc(F)cc3)nc2-c2ccnnc2)CC1 [Example 18]
8.70,8.70,6.86,7.60,8.1,7.2,1.1,<12,Cc1ncc(-c2cc(C#N)c(N3CCC(F)(c4nncn4C)CC3)c(-c3cnc4nn(C(F)(F)F)cc4c3)n2)o1 [Example 19]
8.70,9.00,6.21,6.96,4.3,12.8,0.5,<12,Cn1cnnc1C1(F)CCN(c2c(C#N)cc(-c3cnc(C(F)(F)F)nc3)nc2-c2cnc3nn(C(F)(F)F)cc3c2)CC1 [Example 20]
9.00,8.70,7.11,7.62,6.8,11.9,0.7,35,Cn1cnnc1C1(F)CCN(c2c(C#N)cc(-c3cccnc3)nc2-c2cnc3nn(C(F)(F)F)cc3c2)CC1 [Example 21]
9.00,8.52,6.89,7.77,12,6.8,0.5,17,Cc1ccc(-c2cc(C#N)c(N3CCC(F)(c4nncn4C)CC3)c(-c3cnc4nn(C(F)(F)F)cc4c3)n2)cn1 [Example 22]
9.00,8.70,6.77,7.37,4.1,16.3,1.1,<12,Cc1nn(C)c(C)c1-c1cc(C#N)c(N2CCC(F)(c3nncn3C)CC2)c(-c2cnc3nn(C(F)(F)F)cc3c2)n1 [Example 23]
